Source: paper PMC10502144, “Anti-methicillin-resistant Staphylococcus aureus activity and safety evaluation of 14-O-[(5-ethoxycarbonyl-4,6-dimethylpyrimidine-2-yl) thioacetyl] mutilin (EDT)” (Scientific Reports, 2023)
Like-named read-outs stand apart in the source and are kept apart here.

Assays:
CYP3A4 = assay: CYP450 inhibition in liver microsomes, probe substrate; type: biochemical; conditions: CYP3A4, rat liver microsomes
Method: (§1) Inhibition effects of EDT on cytochrome P450 were evaluated with rat liver microsomes in vitro[43]. Briefly, 12.8 mg EDT was dissolved in methanol and stored at 4 °C as reserve solution. A variety of specific probe substrate (1 μL), EDT solution (1 μL), incubation mixture (193 μL) in which contained glucose-6-phosphate, glucose-6-phosphate dehydrogenase, potassium phosphate buffer, magnesium chloride buffer and PBS buffer, were added into 5 μL liver microsomes to start the reaction at 37 °C. The final concentration of EDT in each group was 0.1, 1, 5, 10, 50, 100 μM. After 30 min, the reaction was terminated by adding the same volume of pre-cooled acetonitrile into the incubation system. After centrifugation for 10 min (8000×g at 4 °C), 10 μL supernatant was removed to analyze the metabolites of specific probe substrate by HPLC. The effects of EDT on CYP450 subtypes were evaluated using formula as follow: (1 − Cn/C0) × 100%, where Cn was substrate metabolite of different concentration of EDT, and C0 was metabolite of blank group.

CYP2A6 = assay: as above; type: biochemical; conditions: CYP2A6, rat liver microsomes
Method: as §1

CYP1A2 = target: T1, CYP1A2 (Rattus norvegicus, UniProt P04799); assay: as above; type: biochemical; conditions: 30 min
T1 construct: from tissue; host or cells: rat liver microsomes
T1 sequence (P04799 1-513): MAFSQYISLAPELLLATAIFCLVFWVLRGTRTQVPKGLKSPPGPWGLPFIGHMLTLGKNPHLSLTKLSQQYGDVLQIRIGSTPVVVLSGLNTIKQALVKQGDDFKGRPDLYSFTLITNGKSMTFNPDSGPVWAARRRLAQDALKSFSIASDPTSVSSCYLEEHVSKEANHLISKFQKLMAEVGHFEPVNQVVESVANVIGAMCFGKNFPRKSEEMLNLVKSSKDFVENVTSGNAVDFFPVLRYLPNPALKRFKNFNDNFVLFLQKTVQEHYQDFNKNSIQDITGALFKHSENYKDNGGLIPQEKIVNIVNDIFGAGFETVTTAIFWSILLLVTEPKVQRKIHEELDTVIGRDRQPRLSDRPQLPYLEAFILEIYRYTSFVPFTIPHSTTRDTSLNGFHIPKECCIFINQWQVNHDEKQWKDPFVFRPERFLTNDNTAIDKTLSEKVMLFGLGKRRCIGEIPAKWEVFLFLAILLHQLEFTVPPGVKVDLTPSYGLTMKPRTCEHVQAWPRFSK
Method: as §1

CYP2C19 = assay: as above; type: biochemical; conditions: CYP2C19, rat liver microsomes
Method: as §1

CYP2D6 = assay: as above; type: biochemical; conditions: CYP2D6, rat liver microsomes
Method: as §1

CYP2C9 = assay: as above; type: biochemical; conditions: CYP2C9, rat liver microsomes
Method: as §1

CYP2E1 = target: T2, CYP2E1 (Rattus norvegicus, UniProt P05182); assay: as above; type: biochemical; conditions: 30 min
T2 construct: from tissue; host or cells: rat liver microsomes
Method: as §1

[1] = system: Salmonella Typhimurium TA1535
Method: Before the test, Salmonella Typhimurium (S. Typhimurium) TA97a, TA98, TA100, TA102, TA1535 and Escherichia coli WP2uvrA pKM101 (pKM101) were first checked for their genetic integrity, including biotin dependence, rfa marker (crystal violet), biotin, histidine dependence and presence of the plasmid pKM101 (ampicillin resistance) or pAQ1 (tetracycline resistance). […] The maximum concentration of EDT was also screened using a preliminary experiment.
DMSO (0.1 mL) was directly incorporated into 1.9 mL melted top agar as the vehicle control. […] Each strain (0.1 mL, 6–7 log10 CFU/mL) was added into 2 mL of top agar in which comprised 0.5 mL S9 (10%), serial concentrations of EDT (2000, 400, 80, 16 and 3.2 μg/plate), DMSO or control chemicals for testing with the S9. For testing without S9, 0.5 mL phosphate buffer saline (PBS, pH 7.4) replaced the S9 mix. Then, the obtained top agar was melted, poured onto the surface of […] and swirled to distribute the top agar to all surfaces of medium, followed by incubation at 37 °C for 48 h. The resultant colonies were counted manually as the number of revertant colonies per plate. The experiments were performed in triplicate and the results were expressed as the average ± SD.

female Wistar rats = assay: Acute oral toxicity test (OECD423); type: in vivo; conditions: for Absolute organ weight, Heart / Absolute organ weight, Kidneys / Absolute organ weight, Liver / Absolute organ weight, Lungs / Absolute organ weight, Ovaries / Absolute organ weight, Spleen / Absolute organ weight, Uterus: 2000 mg/kg oral single dose; for Relative organ weight, Kidneys: organ/b.w. × 100
Method: Adult specific pathogen free (SPF) female Wistar rats (4–6 weeks old) were purchased from Lanzhou Veterinary Research Institute, Chinese Academy of Agricultural Sciences. Animals were kept in clean stainless steel cages (3 rats per cage), free access to food and water and maintained under the 23 °C conditions with a constant 12 h light–dark cycle. Animals were acclimatized for at least 7 days before the experiment. […] The animal study was carried out in compliance with the ARRIVE guidelines.
Acute toxicity tests of EDT were performed according to OECD423 bulletin[23]. This method can measure drug roughly LD50 with fewer experimental animals. […] Six animals were randomly separated into one treatment group (n = 3) and control group (n = 3). Rats in treatment group were orally administered with a single dose of 2000 mg/kg of EDT dissolved in vehicle (corn oil: DMSO = 4:1) in a volume of 10 mL/kg body weight (b.w.) by gavage. Animals in the control group only received 10 mL/kg vehicle. […] After first round treatment, observations were focused on mortality, behavioural symptoms and changes in skin, eyes and fur. Individual body weight was recorded at the starting of protocol and at the end of protocol. […] On the 14th day, all the surviving animals were euthanized with ketamine hydrochloride 70 mg/kg (i.p.) and their hearts, livers, spleens, lungs, kidneys, uterus and ovaries were individually observed for overt pathology and removed for relative weight calculation (organ/b.w. × 100).

T2 sequence (P05182 whole entry): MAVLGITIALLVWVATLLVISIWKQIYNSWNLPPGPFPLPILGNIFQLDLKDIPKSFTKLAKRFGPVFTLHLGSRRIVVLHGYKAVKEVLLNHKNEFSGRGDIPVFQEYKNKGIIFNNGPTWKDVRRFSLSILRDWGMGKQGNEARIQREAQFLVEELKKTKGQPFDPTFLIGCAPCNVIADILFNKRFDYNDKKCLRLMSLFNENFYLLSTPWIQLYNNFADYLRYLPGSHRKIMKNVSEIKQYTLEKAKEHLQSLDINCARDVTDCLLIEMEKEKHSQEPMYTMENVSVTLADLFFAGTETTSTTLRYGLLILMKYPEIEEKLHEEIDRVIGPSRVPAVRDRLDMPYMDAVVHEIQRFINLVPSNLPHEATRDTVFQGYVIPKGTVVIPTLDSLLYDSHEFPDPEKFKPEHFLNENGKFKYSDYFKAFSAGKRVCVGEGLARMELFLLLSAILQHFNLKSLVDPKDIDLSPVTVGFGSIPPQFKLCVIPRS

Q: Which IC50 at 30 min (CYP3A4) does the source give for `C=CC1(C)CC(OC(=O)CSc2nc(C)c(C(=O)OCC)c(C)n2)C2(C)C(C)CCC3(CCC(=O)C32)C(C)C1O` (stereo not drawn) [EDT, 14-O-[(5-ethoxycarbonyl-4,6-dimethylpyrimidine-2-yl)thioacetyl] mutilin] here?
A: 9.25 µM

Q: And the IC50 at 30 min (CYP2A6)?
A: > 100 µM

Q: What about the IC50 (CYP1A2) of the same molecule?
A: > 100 µM

Q: What about the IC50 at 30 min (CYP2C19) of the same molecule?
A: > 100 µM

Q: And the IC50 at 30 min (CYP2D6)?
A: > 100 µM

Q: And the IC50 at 30 min (CYP2C9)?
A: > 100 µM

Q: And the IC50 (CYP2E1)?
A: 88.5 µM

Q: And the “number of revertant colonies per plate” value ([1]; TA1535, 3.2 μg/plate, +S9)?
A: 21.00 ± 4.00

Q: What about the “number of revertant colonies per plate” value ([1]; TA1535, 3.2 μg/plate, −S9) of the same molecule?
A: 19.67 ± 1.33

Q: And the “number of revertant colonies per plate” value ([1]; TA1535, 16 μg/plate, +S9)?
A: 27.00 ± 2.00

Q: And the “number of revertant colonies per plate” value ([1]; TA1535, 16 μg/plate, −S9)?
A: 23.33 ± 1.67

Q: What about the “number of revertant colonies per plate” value ([1]; TA1535, 80 μg/plate, +S9) of the same molecule?
A: 25.00 ± 4.00

Q: What about the “number of revertant colonies per plate” value ([1]; TA1535, 80 μg/plate, −S9) of the same molecule?
A: 23.33 ± 2.67

Q: What about the “number of revertant colonies per plate” value ([1]; TA1535, 400 μg/plate, +S9) of the same molecule?
A: 26.00 ± 3.00

Q: What about the “number of revertant colonies per plate” value ([1]; TA1535, 400 μg/plate, −S9) of the same molecule?
A: 23.33 ± 2.67

Q: What about the “number of revertant colonies per plate” value ([1]; TA1535, 2000 μg/plate, +S9) of the same molecule?
A: 19.33 ± 3.67

Q: What about the “number of revertant colonies per plate” value ([1]; TA1535, 2000 μg/plate, −S9) of the same molecule?
A: 17.67 ± 2.33

Q: What about the LD50 (female Wistar rats; female Wistar rats, single oral dose, OECD Guidelines 423) of the same molecule?
A: more than 2000 mg/kg body weight

Q: And the “Absolute organ weight, Heart” value (female Wistar rats; first round treatment, day 14)?
A: 0.71 ± 0.06 g

Q: And the “Absolute organ weight, Kidneys” value (female Wistar rats; first round treatment, day 14)?
A: 1.11 ± 0.01 g

Q: And the “Absolute organ weight, Liver” value (female Wistar rats; first round treatment, day 14)?
A: 9.66 ± 0.17 g

Q: And the “Absolute organ weight, Lungs” value (female Wistar rats; first round treatment, day 14)?
A: 1.38 ± 0.03 g

Q: And the “Absolute organ weight, Ovaries” value (female Wistar rats; first round treatment, day 14)?
A: 0.06 ± 0.00 g

Q: And the “Absolute organ weight, Spleen” value (female Wistar rats; first round treatment, day 14)?
A: 0.70 ± 0.03 g

Q: And the “Absolute organ weight, Uterus” value (female Wistar rats; first round treatment, day 14)?
A: 0.45 ± 0.02 g

Q: And the “Relative organ weight, Kidneys” value (female Wistar rats; first round treatment)?
A: 0.52 ± 0.01%

Q: And the “Relative organ weight, Ovaries” value (female Wistar rats; rat, in vivo)?
A: 0.03 ± 0.00%

Q: What about the “Relative organ weight, Spleen” value (female Wistar rats; rat, in vivo) of the same molecule?
A: 0.33 ± 0.01%

Q: What about the mortality (female Wistar rats; rat, in vivo, po, 2000 mg/kg) of the same molecule?
A: no mortality

Q: And the “Absolute organ weight, Heart” value (female Wistar rats; second round treatment, day 14)?
A: 0.75 ± 0.03 g

Q: What about the “Absolute organ weight, Kidneys” value (female Wistar rats; second round treatment, day 14) of the same molecule?
A: 1.11 ± 0.03 g

Q: And the “Absolute organ weight, Liver” value (female Wistar rats; second round treatment, day 14)?
A: 9.69 ± 0.06 g

Q: And the “Absolute organ weight, Lungs” value (female Wistar rats; second round treatment, day 14)?
A: 1.40 ± 0.05 g

Q: And the “Absolute organ weight, Ovaries” value (female Wistar rats; second round treatment, day 14)?
A: 0.06 ± 0.00 g

Q: What about the “Absolute organ weight, Spleen” value (female Wistar rats; second round treatment, day 14) of the same molecule?
A: 0.71 ± 0.03 g

Q: What about the “Absolute organ weight, Uterus” value (female Wistar rats; second round treatment, day 14) of the same molecule?
A: 0.43 ± 0.03 g

Q: What about the “Relative organ weight, Kidneys” value (female Wistar rats; second round treatment) of the same molecule?
A: 0.52 ± 0.01%

Q: What about the “body weight compared to the control group” value (female Wistar rats; single oral 2000 mg/kg, 14 days) of the same molecule?
A: did not produce alterations in body weight

Q: And the macroscopic necropsy examination (female Wistar rats; single oral 2000 mg/kg, day 14)?
A: no gross pathological lesions
